Measured values: US20020054861A1, “Method of preparing particularly skin-compatible cosmetic or dematological cleansing preparations” (priority 1999, published 2002)

Test system: skin (inner sides of the forearms)
Assay: Adsorption of lauryl ether sulfate on the skin in a simulated washing operation (forearm, desorption with Triton X-100, ion-pair chromatography)
Type: in vivo, human
Protocol: The method which we have developed for determining the adsorption of lauryl ether sulfate on the skin simulates a washing operation as occurs, for example, during daily showering: Firstly, the inner sides of the forearms are divided into a number of test areas using insulating tape. The area to be treated is then wetted with approximately 50 ml of mains wafer (T=38±1° C.). The lauryl ether sulfate is then applied. Throughout the application period of 45 s, the test subject distributes the lauryl ether sulfate over the area using 2 fingers in uniform circular movements. At the end of the application period, the test area is rinsed with approximately 950 ml of mains water (T=38±1° C.) and carefully patted dry using a clean cellulose cloth. For the desorption, a plastic ring with an internal diameter of 25 mm is pressed firmly onto the inner side of the test subject's forearm. 1000 μl of a 1% Triton X-100 solution are then introduced into the ring. The tip of a round Teflon-coated spatula is then used to scrape the skin uniformly for 1 min. This leads to suspension of corneocytes. To work up the samples for analysis, the samples are centrifuged and 800 μl of the supernatant are drawn off. The supernatant is analyzed with regard to its lauryl ether sulfate content using ion-pair chromatography. The effectiveness of the desorption method described is 79%, i.e. 79% of the amount of lauryl ether sulfate actually present on the skin are included.

[1] = cosurfactant concentration 3%, added to a lauryl ether sulfate solution

CCCCCCCCCCCC(=O)O [Lauric acid]
Effect on the adsorbed amount of lauryl ether sulfate (reduction) (cosurfactant concentration 1%, pH9, added to a lauryl ether sulfate solution): Reduction by 15%

disodium laureth sulfosuccinate
Effect on the adsorbed amount of lauryl ether sulfate (reduction) [1]: Reduction by 28%

CCCCCCCCCCO[C@@H]1O[C@H](CO)[C@@H](O)[C@H](O)[C@H]1O [Decyl glucoside]
Effect on the adsorbed amount of lauryl ether sulfate (reduction) (cosurfactant concentration 5%, added to a lauryl ether sulfate solution): Reduction by 29%

cocamidopropylbetaine
Effect on the adsorbed amount of lauryl ether sulfate (reduction) [1]: Reduction by 31%

sodium cocoamphoacetate
Effect on the adsorbed amount of lauryl ether sulfate (reduction) [1]: Reduction by 27%
